Each structure is given as a SMILES string. Activity calls are given as the source filed them. The rule behind the calls is not given here.

One data set concerns Mus musculus. Kind of data set: Anti-inflammatory activity in Mus musculus Swiss albino (mouse) assessed as inhibition of carrageenan-induced edema at 100 mg/kg, po pretreated 60 min before carrageenan-challenge measured after 270 min. Format: functional.
Conditions: not given
As for `Cc1cccc(NC(=O)Cn2c(=O)sc3cc(C(=O)c4ccccc4)ccc32)n1`, the inhibition entry was “inactive”.
Take `O=C(Cn1c(=O)sc2cc(C(=O)c3ccccc3Cl)ccc21)Nc1ccccn1`: the inhibition result is “inactive”.
For the molecule `O=C(Cn1c(=O)sc2cc(C(=O)c3ccccc3)ccc21)Nc1ccccn1`, the inhibition entry was “inactive”.
`O=C(Cn1c(=O)sc2cc(C(=O)c3ccccc3F)ccc21)Nc1ccccn1`: the inhibition entry is “inactive”.
Consider `Cc1ccnc(NC(=O)Cn2c(=O)sc3cc(C(=O)c4ccccc4F)ccc32)c1`, for which the inhibition in vivo at 100 mg/kg came out at 6.1%.
Take `O=C(Cn1c(=O)sc2cc(C(=O)c3ccccc3)ccc21)Nc1ccc(Cl)cc1`: the inhibition in vivo at 100 mg/kg was determined as 22.9%.

The subject of the next data set is Mus musculus. Kind of data set: Anti-inflammatory activity in Mus musculus Swiss albino (mouse) assessed as inhibition of carrageenan-induced edema at 100 mg/kg, po pretreated 60 min before carrageenan-challenge measured after 180 min. Type of data set: functional.
Conditions: not given
Regarding `Cc1cccc(NC(=O)Cn2c(=O)sc3cc(C(=O)c4ccccc4)ccc32)n1`, the inhibition result was “inactive”.
With `O=C(Cn1c(=O)sc2cc(C(=O)c3ccccc3Cl)ccc21)Nc1ccccn1`, the inhibition entry is “inactive”.
With `O=C(Cn1c(=O)sc2cc(C(=O)c3ccccc3)ccc21)Nc1ccccn1`, the inhibition entry is “inactive”.
`O=C(Cn1c(=O)sc2cc(C(=O)c3ccccc3F)ccc21)Nc1ccccn1`: the inhibition entry was “inactive”.
Take `Cc1ccnc(NC(=O)Cn2c(=O)sc3cc(C(=O)c4ccccc4F)ccc32)c1`: the inhibition in vivo at 100 mg/kg was determined as 6.8%.
For the molecule `O=C(Cn1c(=O)sc2cc(C(=O)c3ccccc3)ccc21)Nc1ccc(Cl)cc1`, the inhibition in vivo at 100 mg/kg is 15.2%.

Another data set deals with Prostaglandin G/H synthase 1 (Homo sapiens) (UniProt P23219). The settings on record: Blood, at 10 µM.
Prostaglandin G/H synthase 1 (Homo sapiens), sequence (P23219 whole entry): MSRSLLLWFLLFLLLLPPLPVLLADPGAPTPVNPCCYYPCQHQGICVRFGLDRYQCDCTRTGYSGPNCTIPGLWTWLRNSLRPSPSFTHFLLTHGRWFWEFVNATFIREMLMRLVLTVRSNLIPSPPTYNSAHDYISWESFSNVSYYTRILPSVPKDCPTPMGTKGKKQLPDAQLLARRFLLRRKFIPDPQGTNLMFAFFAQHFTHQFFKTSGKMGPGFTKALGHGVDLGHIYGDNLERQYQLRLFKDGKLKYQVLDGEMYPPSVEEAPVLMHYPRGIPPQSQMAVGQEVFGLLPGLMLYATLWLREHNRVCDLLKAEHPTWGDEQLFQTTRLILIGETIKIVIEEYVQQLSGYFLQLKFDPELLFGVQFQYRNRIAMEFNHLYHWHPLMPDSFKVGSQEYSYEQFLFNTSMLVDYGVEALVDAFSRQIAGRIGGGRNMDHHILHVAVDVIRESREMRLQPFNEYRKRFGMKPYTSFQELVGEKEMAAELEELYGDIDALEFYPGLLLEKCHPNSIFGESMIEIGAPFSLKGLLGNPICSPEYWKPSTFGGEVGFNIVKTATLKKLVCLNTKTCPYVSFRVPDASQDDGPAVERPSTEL
Description: Inhibition of cyclooxygenase-1 in Homo sapiens (human) whole blood assessed as TXB2 level at 10 uM by EIA
With `CS(=O)(=O)c1ccc(-c2cc(Br)sc2-c2ccc(F)cc2)cc1`, the inhibition was 100%.
On to `Cc1cccc(NC(=O)Cn2c(=O)sc3cc(C(=O)c4ccccc4)ccc32)n1`, for which the inhibition entry is “inactive”.
The same measure, in the same setting: then `O=C(Cn1c(=O)sc2cc(C(=O)c3ccccc3Cl)ccc21)Nc1ccccn1`, with 45.2%; and `O=C(Cn1c(=O)sc2cc(C(=O)c3ccccc3)ccc21)Nc1ccccn1`, with 49.8%; and `O=C(Cn1c(=O)sc2cc(C(=O)c3ccccc3F)ccc21)Nc1ccccn1`, with 17.8%.
Still for that read-out and setting: then `Cc1ccnc(NC(=O)Cn2c(=O)sc3cc(C(=O)c4ccccc4F)ccc32)c1`, with 1.98%; and `O=C(Cn1c(=O)sc2cc(C(=O)c3ccccc3)ccc21)Nc1ccc(Cl)cc1`, with “inactive”.

Another data set concerns the target T1, Polyunsaturated fatty acid 5-lipoxygenase (Homo sapiens) (UniProt P09917).
T1 sequence (whole entry): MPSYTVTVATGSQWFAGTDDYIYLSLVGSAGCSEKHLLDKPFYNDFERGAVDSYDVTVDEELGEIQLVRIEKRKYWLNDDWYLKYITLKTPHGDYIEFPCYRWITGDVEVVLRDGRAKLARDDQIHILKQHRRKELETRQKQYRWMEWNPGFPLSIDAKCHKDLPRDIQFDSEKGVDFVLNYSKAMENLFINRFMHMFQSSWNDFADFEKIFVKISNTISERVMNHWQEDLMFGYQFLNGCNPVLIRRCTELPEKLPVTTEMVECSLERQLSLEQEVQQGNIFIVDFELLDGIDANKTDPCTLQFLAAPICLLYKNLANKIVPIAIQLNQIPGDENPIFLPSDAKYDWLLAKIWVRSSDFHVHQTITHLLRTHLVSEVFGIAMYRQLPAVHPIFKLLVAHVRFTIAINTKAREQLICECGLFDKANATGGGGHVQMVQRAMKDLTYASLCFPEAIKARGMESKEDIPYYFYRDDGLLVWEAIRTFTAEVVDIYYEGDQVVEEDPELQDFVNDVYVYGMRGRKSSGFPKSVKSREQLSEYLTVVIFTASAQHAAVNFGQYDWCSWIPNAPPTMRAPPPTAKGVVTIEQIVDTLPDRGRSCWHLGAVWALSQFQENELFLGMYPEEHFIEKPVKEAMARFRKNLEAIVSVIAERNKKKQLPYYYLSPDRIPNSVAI
As to the kind of experiment: Inhibition of 5-LOX (unknown origin) at 10 uM.
Conditions: not given
Consider `Cc1cccc(NC(=O)Cn2c(=O)sc3cc(C(=O)c4ccccc4)ccc32)n1`, for which the inhibition amounted to 26%.
On to `O=C(Cn1c(=O)sc2cc(C(=O)c3ccccc3Cl)ccc21)Nc1ccccn1`, for which the inhibition is 3%.
On to `O=C(Cn1c(=O)sc2cc(C(=O)c3ccccc3)ccc21)Nc1ccccn1`, for which the inhibition result was “inactive”.
Take `O=C(Cn1c(=O)sc2cc(C(=O)c3ccccc3F)ccc21)Nc1ccccn1`: the inhibition entry is “inactive”.
On the same count and under the same terms, then `Cc1ccnc(NC(=O)Cn2c(=O)sc3cc(C(=O)c4ccccc4F)ccc32)c1`, with 19%; and `O=C(Cn1c(=O)sc2cc(C(=O)c3ccccc3)ccc21)Nc1ccc(Cl)cc1`, with “inactive”.

The subject of a further data set is Mus musculus. As to the kind of experiment: Anti-inflammatory activity in Mus musculus Swiss albino (mouse) assessed as inhibition of carrageenan-induced edema at 100 mg/kg, po pretreated 60 min before carrageenan-challenge measured after 360 min.
Conditions: not given
Type of data set: functional.
In the case of `Cc1cccc(NC(=O)Cn2c(=O)sc3cc(C(=O)c4ccccc4)ccc32)n1`, the inhibition result is “inactive”.
On to `O=C(Cn1c(=O)sc2cc(C(=O)c3ccccc3Cl)ccc21)Nc1ccccn1`, for which the inhibition result was “inactive”.
Consider `O=C(Cn1c(=O)sc2cc(C(=O)c3ccccc3)ccc21)Nc1ccccn1`, for which the inhibition result is “inactive”.
For `O=C(Cn1c(=O)sc2cc(C(=O)c3ccccc3F)ccc21)Nc1ccccn1`, the inhibition entry was “inactive”.
With `Cc1ccnc(NC(=O)Cn2c(=O)sc3cc(C(=O)c4ccccc4F)ccc32)c1`, the inhibition in vivo at 100 mg/kg was determined as 4.6%.
Turning to `O=C(Cn1c(=O)sc2cc(C(=O)c3ccccc3)ccc21)Nc1ccc(Cl)cc1`, the inhibition in vivo at 100 mg/kg stood at 16.5%.

In another data set the test system is Mus musculus. As to the kind of experiment: Anti-inflammatory activity in Mus musculus Swiss albino (mouse) assessed as inhibition of carrageenan-induced edema at 100 mg/kg, po pretreated 60 min before carrageenan-challenge measured after 90 min. Type of data set: functional.
Conditions: not given
Consider `Cc1cccc(NC(=O)Cn2c(=O)sc3cc(C(=O)c4ccccc4)ccc32)n1`, for which the inhibition entry was “inactive”.
As to `O=C(Cn1c(=O)sc2cc(C(=O)c3ccccc3Cl)ccc21)Nc1ccccn1`, the inhibition result was “inactive”.
For `O=C(Cn1c(=O)sc2cc(C(=O)c3ccccc3)ccc21)Nc1ccccn1`, the inhibition result is “inactive”.
For the molecule `O=C(Cn1c(=O)sc2cc(C(=O)c3ccccc3F)ccc21)Nc1ccccn1`, the inhibition result is “inactive”.
Regarding `Cc1ccnc(NC(=O)Cn2c(=O)sc3cc(C(=O)c4ccccc4F)ccc32)c1`, the inhibition in vivo at 100 mg/kg came out at 2.8%.
As to `O=C(Cn1c(=O)sc2cc(C(=O)c3ccccc3)ccc21)Nc1ccc(Cl)cc1`, the inhibition in vivo at 100 mg/kg turned out to be 6.6%.

The test system of another data set is Mus musculus. As to the kind of experiment: Analgesic activity in Mus musculus Swiss albino (mouse) assessed as inhibition of p-benzoquinone-induced writhing at 100 mg/kg, po pretreated 60 min before p-benzoquinone challenge. Format: functional.
Conditions: not given
Regarding `Cc1cccc(NC(=O)Cn2c(=O)sc3cc(C(=O)c4ccccc4)ccc32)n1`, the inhibition entry is “inactive”.
For `O=C(Cn1c(=O)sc2cc(C(=O)c3ccccc3Cl)ccc21)Nc1ccccn1`, the inhibition in vivo at 100 mg/kg was found to be 15.5%.
In the case of `O=C(Cn1c(=O)sc2cc(C(=O)c3ccccc3)ccc21)Nc1ccccn1`, the inhibition result is “inactive”.
Take `O=C(Cn1c(=O)sc2cc(C(=O)c3ccccc3F)ccc21)Nc1ccccn1`: the inhibition in vivo at 100 mg/kg was found to be 18.7%.
As to `Cc1ccnc(NC(=O)Cn2c(=O)sc3cc(C(=O)c4ccccc4F)ccc32)c1`, the inhibition in vivo at 100 mg/kg amounted to 27%.
As to `O=C(Cn1c(=O)sc2cc(C(=O)c3ccccc3)ccc21)Nc1ccc(Cl)cc1`, the inhibition in vivo at 100 mg/kg was 26.5%.
Still for that read-out and setting: with `CC(=O)Oc1ccccc1C(=O)O` [ASPIRIN] the figure was 50.1%.

The next data set deals with Mus musculus. Kind of data set: Gastrointestinal toxicity in Mus musculus Swiss albino (mouse) assessed as ratio of ulcer at 100 mg/kg, po measured after 2 hr. Format: organism-based. On the set-up: dose 100 mg/kg, route oral. The settings on record: in vivo.
On to `Cc1cccc(NC(=O)Cn2c(=O)sc3cc(C(=O)c4ccccc4)ccc32)n1`, for which the Activity result was “Toxic”.
Consider `O=C(Cn1c(=O)sc2cc(C(=O)c3ccccc3Cl)ccc21)Nc1ccccn1`, for which the Activity entry was “Non-toxic”.
Turning to `O=C(Cn1c(=O)sc2cc(C(=O)c3ccccc3)ccc21)Nc1ccccn1`, the Activity entry is listed as “Non-toxic”.
For `O=C(Cn1c(=O)sc2cc(C(=O)c3ccccc3F)ccc21)Nc1ccccn1`, the Activity result is “Non-toxic”.
For `Cc1ccnc(NC(=O)Cn2c(=O)sc3cc(C(=O)c4ccccc4F)ccc32)c1`, the Activity result was “Toxic”.
For `O=C(Cn1c(=O)sc2cc(C(=O)c3ccccc3)ccc21)Nc1ccc(Cl)cc1`, the Activity entry is given as “Non-toxic”.
Turning to `CC(=O)Oc1ccccc1C(=O)O` [ASPIRIN], the Activity entry is given as “Toxic”.

The next data set concerns the target T2, Prostaglandin G/H synthase 2 (Homo sapiens) (UniProt P35354).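 Also: human whole blood COX-2 activity read out as PGE2 level measured by enzyme immunoassay.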
T2 sequence (whole entry): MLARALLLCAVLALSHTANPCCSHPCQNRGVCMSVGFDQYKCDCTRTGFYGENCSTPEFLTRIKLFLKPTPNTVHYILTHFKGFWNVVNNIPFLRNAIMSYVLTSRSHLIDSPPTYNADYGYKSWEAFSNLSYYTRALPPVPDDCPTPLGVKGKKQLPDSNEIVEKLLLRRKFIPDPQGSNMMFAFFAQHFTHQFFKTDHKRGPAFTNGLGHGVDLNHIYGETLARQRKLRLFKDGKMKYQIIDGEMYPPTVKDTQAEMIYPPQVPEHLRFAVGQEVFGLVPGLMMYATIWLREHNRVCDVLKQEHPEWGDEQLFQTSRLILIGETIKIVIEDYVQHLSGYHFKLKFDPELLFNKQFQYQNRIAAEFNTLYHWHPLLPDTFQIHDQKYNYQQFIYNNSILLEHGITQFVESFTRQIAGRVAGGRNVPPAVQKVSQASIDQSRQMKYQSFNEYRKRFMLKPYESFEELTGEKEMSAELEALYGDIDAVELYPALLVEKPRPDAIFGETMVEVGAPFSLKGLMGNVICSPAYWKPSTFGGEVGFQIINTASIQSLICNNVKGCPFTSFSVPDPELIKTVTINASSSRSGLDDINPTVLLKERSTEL
The settings on record: Blood, at 10 µM.
Description: Inhibition of cyclooxygenase-2 in Homo sapiens (human) whole blood assessed as PGE2 level at 10 uM by EIA
Turning to `Cc1cccc(NC(=O)Cn2c(=O)sc3cc(C(=O)c4ccccc4)ccc32)n1`, the inhibition result was “inactive”.
As for `O=C(Cn1c(=O)sc2cc(C(=O)c3ccccc3Cl)ccc21)Nc1ccccn1`, the inhibition was found to be 28.9%.
For the molecule `O=C(Cn1c(=O)sc2cc(C(=O)c3ccccc3)ccc21)Nc1ccccn1`, the inhibition entry is “inactive”.
Same read-out and setting: with `O=C(Cn1c(=O)sc2cc(C(=O)c3ccccc3F)ccc21)Nc1ccccn1` the entry was “inactive”; with `Cc1ccnc(NC(=O)Cn2c(=O)sc3cc(C(=O)c4ccccc4F)ccc32)c1`, “inactive”.
With `O=C(Cn1c(=O)sc2cc(C(=O)c3ccccc3)ccc21)Nc1ccc(Cl)cc1`, the inhibition stood at 23.1%.

Values taken from ChEMBL document CHEMBL3045772, “Amide derivatives of [6-acyl-2-benzothiazolinon-3-yl] acetic acids as potential analgesic and anti-inflammatory compounds” (Med Chem Res, 2010).
